Assay results: US20250059188A1, “ARYLSULPHONAMIDE COMPOUNDS” (Anaxis Pharma Pty Ltd, priority 2021, published 2025)
pKd: −log10 of the molar value.

Biological target: mouse MLKL (full length) (Mus musculus (Mouse), UniProt Q9D2Y4)
Test: KINOMEscan binding assay, mouse MLKL (full length)
Conditions: equilibrium dissociation constant
Procedure, shortened: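 KINOMEscan competition binding using kinase-tagged T7 phage or HEK-293-produced DNA-tagged protein captured on ligand beads, with eluted protein quantified by qPCR. Compounds were run as an 11-point 3-fold series, top 30,000 nM, in 1% DMSO. Kd was fitted with the Hill equation, slope fixed at −1.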

Sequence of mouse MLKL (full length) (Q9D2Y4 whole entry): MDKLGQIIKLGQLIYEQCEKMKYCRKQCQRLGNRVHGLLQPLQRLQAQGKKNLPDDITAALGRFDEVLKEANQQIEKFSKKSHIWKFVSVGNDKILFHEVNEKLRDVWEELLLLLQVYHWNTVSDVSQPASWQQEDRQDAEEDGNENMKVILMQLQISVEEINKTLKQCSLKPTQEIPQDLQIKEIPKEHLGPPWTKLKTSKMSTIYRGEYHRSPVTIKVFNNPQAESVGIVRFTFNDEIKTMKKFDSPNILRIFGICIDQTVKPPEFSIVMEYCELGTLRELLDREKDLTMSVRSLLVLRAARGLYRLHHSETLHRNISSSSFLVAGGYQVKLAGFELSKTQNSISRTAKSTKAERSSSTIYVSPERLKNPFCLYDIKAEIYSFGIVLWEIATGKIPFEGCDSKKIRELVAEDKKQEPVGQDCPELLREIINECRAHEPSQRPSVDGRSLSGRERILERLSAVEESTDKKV

Structure (SMILES) | pKd
Cn1nc(-c2ccc(NS(=O)(=O)C(F)F)c(OCc3ccc(F)cc3)c2)c2c(N)ncc(-c3cnn(C4CCOCC4)c3)c21 [Compound 13, N-(4-(4-amino-1-methyl-7-(1-(tetrahydro-2H-pyran-4-yl)-1H-pyrazol-4-yl)-1H-pyrazolo[4,3-c]pyridin-3-yl)-2-((4-fluorobenzyl)oxy)phenyl)-1,1-difluoromethanesulfonamide] | > 9.00
C[C@H](Oc1cc(-c2nn(C)c3c(-c4cnn(C5CCOCC5)c4)cnc(N)c23)ccc1NS(=O)(=O)C(F)F)c1ccc(F)cc1 [Compound 19, (S)-N-(4-(4-amino-1-methyl-7-(1-(tetrahydro-2H-pyran-4-yl)-1H-pyrazol-4-yl)-1H-pyrazolo[4,3-c]pyridin-3-yl)-2-(1-(4-fluorophenyl)ethoxy)phenyl)-1,1-difluoromethanesulfonamide] | > 9.00
